Source: patent US11713338B2, “Cyclic peptides multimers targeting α-4-β-7 integrin” (priority 2016, dated 2023)
pIC50: −log10 of the molar value. Like-named read-outs stand apart in the source and are kept apart here.

Biological target: T1, integrin α4β7 (RPMI8866 human cells adhering to MAdCAM-1) (Homo sapiens, UniProt P13612+P26010)
T1 construct: RMP18866 cells, which express integrin α4β7; host or cells: RPMI8866
T1 sequence (P13612 34-1032): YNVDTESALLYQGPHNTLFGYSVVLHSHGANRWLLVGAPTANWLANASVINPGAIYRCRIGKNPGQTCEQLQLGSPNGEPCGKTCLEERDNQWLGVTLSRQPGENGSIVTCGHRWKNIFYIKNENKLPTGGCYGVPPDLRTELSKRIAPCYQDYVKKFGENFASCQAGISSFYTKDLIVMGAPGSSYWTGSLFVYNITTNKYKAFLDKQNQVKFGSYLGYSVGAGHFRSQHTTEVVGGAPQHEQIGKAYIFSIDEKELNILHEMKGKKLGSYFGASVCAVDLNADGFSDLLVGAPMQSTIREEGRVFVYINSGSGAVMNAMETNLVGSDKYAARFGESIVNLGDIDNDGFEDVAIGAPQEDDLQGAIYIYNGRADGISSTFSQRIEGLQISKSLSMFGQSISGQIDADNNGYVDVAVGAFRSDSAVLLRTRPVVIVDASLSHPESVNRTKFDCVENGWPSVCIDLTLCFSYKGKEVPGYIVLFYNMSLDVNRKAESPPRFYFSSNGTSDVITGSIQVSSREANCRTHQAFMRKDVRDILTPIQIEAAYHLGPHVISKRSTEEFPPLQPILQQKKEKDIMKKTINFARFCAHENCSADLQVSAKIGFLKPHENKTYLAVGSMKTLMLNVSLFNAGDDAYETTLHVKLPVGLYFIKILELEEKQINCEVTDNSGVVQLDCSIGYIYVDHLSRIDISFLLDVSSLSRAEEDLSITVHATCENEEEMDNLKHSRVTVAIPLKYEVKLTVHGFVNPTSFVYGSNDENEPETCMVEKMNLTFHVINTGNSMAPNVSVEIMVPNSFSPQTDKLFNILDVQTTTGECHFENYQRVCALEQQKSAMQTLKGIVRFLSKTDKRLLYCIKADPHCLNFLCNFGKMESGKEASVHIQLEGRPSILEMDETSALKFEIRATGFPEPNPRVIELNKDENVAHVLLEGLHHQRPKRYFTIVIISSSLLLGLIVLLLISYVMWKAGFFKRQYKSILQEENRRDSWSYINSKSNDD
T1 sequence (P26010 20-798): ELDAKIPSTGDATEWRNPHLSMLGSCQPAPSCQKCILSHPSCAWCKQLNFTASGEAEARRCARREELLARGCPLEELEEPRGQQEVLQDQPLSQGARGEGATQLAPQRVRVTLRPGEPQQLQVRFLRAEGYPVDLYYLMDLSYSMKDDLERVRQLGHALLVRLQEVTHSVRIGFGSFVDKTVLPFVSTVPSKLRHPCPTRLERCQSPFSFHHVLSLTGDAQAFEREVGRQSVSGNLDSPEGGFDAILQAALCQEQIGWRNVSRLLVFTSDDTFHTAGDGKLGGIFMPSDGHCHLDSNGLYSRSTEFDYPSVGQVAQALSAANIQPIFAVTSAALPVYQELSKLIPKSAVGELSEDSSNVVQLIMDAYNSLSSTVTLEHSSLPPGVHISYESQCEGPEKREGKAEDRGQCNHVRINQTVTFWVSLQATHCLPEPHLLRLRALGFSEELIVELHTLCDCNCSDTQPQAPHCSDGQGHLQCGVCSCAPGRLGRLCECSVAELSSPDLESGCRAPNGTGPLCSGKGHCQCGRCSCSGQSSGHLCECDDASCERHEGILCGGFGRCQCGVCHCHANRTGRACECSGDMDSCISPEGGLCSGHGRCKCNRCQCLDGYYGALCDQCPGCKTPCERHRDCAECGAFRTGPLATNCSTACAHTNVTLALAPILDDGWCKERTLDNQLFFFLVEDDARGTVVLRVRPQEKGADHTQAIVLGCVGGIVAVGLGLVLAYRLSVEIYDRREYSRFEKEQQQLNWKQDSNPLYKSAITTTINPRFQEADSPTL
Assay: Integrin α4β7-MAdCAM cell adhesion assay (RPMI8866 cells)
Format: cell-based
Summary of the method: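 RPMI8866 cells were loaded with […] calcein in PBS for 30 min at 37° C. After plate washes with PBS, fluorescence of adherent cells was read, and no-cell control wells were subtracted from each test well to build the dose response.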

[1] = RPMI8866 cells adhering to MAdCAM, read-out: RPMI8866 Adhesion α4β7/MAdCAM IC50

SMILES | pIC50 [1] | pIC50 (RPMI8866 cells, read-out: IC50 in the RPMI8866 cell adhesion assay)
CC(C)C[C@@H]1NC(=O)c2ccc(-c3ccc(N4CCN(C(=O)c5cc(F)ccc5-c5ccc(F)cc5C(=O)N5CCN(c6ccc(-c7ccc8cc7CNC(=O)[C@@H]7CCCN7[C@H](C(=O)NC(C)(C)C)[C@H](C)NC(=O)[C@H]([C@@H](C)O)NC(=O)[C@H](CC(=O)O)NC(=O)[C@H](CC(C)C)NC8=O)cc6)CC5)CC4)cc3)c(c2)CNC(=O)[C@@H]2CCCN2[C@H](C(=O)NC(C)(C)C)[C@H](C)NC(=O)[C@H]([C@@H](C)O)NC(=O)[C@H](CC(=O)O)NC1=O [Compound 475] | 7.74 | –
CC(C)C[C@@H]1NC(=O)C[C@H](CCCCN)N(C)C(=O)[C@H](CCCCNC(=O)CCCCCCCC(=O)NCCCC[C@@H]2NC(=O)[C@@H]3CCCN3[C@H](C(=O)NC(C)(C)C)[C@H](C)NC(=O)[C@H]([C@@H](C)O)NC(=O)[C@H](CC(=O)O)NC(=O)[C@H](CC(C)C)NC(=O)C[C@H](CCCCN)N(C)C2=O)NC(=O)[C@@H]2CCCN2[C@H](C(=O)NC(C)(C)C)[C@H](C)NC(=O)[C@H]([C@@H](C)O)NC(=O)[C@H](CC(=O)O)NC1=O [Compound 533] | 7.77 | –
CC(C)C[C@@H]1NC(=O)C[C@H](CCCCN)N(C)C(=O)[C@H](CCCCNC(=O)c2cc(C(=O)NCCCC[C@@H]3NC(=O)[C@@H]4CCCN4[C@H](C(=O)NC(C)(C)C)[C@H](C)NC(=O)[C@H]([C@@H](C)O)NC(=O)[C@H](CC(=O)O)NC(=O)[C@H](CC(C)C)NC(=O)C[C@H](CCCCN)N(C)C3=O)cc(C(=O)NCCCC[C@@H]3NC(=O)[C@@H]4CCCN4[C@H](C(=O)NC(C)(C)C)[C@H](C)NC(=O)[C@H]([C@@H](C)O)NC(=O)[C@H](CC(=O)O)NC(=O)[C@H](CC(C)C)NC(=O)C[C@H](CCCCN)N(C)C3=O)c2)NC(=O)[C@@H]2CCCN2[C@H](C(=O)NC(C)(C)C)[C@H](C)NC(=O)[C@H]([C@@H](C)O)NC(=O)[C@H](CC(=O)O)NC1=O [Compound 538] | 7.89 | –
CC(C)C[C@@H]1NC(=O)c2ccc(-c3ccc(N4CCN(c5ncc([N+](=O)[O-])c(N6CCN(c7ccc(-c8ccc9cc8CNC(=O)[C@@H]8CCCN8[C@H](C(=O)NC(C)(C)C)[C@H](C)NC(=O)[C@H]([C@@H](C)O)NC(=O)[C@H](CC(=O)O)NC(=O)[C@H](CC(C)C)NC9=O)cc7)CC6)n5)CC4)cc3)c(c2)CNC(=O)[C@@H]2CCCN2[C@H](C(=O)NC(C)(C)C)[C@H](C)NC(=O)[C@H]([C@@H](C)O)NC(=O)[C@H](CC(=O)O)NC1=O [Compound 468] | 7.89 | –
CC(C)C[C@@H]1NC(=O)c2ccc(-c3ccc(N4CCN(C(=O)c5ccccc5-c5ccccc5C(=O)N5CCN(c6ccc(-c7ccc8cc7CNC(=O)[C@@H]7CCCN7[C@H](C(=O)NC(C)(C)C)[C@H](C)NC(=O)[C@H]([C@@H](C)O)NC(=O)[C@H](CC(=O)O)NC(=O)[C@H](CC(C)C)NC8=O)cc6)CC5)CC4)cc3)c(c2)CNC(=O)[C@@H]2CCCN2[C@H](C(=O)NC(C)(C)C)[C@H](C)NC(=O)[C@H]([C@@H](C)O)NC(=O)[C@H](CC(=O)O)NC1=O [Compound 517] | 8.00 | 8.00
CC(C)C[C@@H]1NC(=O)c2ccc(-c3ccc(N4CCN(C(=O)c5ccc(C(=O)N6CCN(c7ccc(-c8ccc9cc8CNC(=O)[C@@H]8CCCN8[C@H](C(=O)NC(C)(C)C)[C@H](C)NC(=O)[C@H]([C@@H](C)O)NC(=O)[C@H](CC(=O)O)NC(=O)[C@H](CC(C)C)NC9=O)cc7)CC6)s5)CC4)cc3)c(c2)CNC(=O)[C@@H]2CCCN2[C@H](C(=O)NC(C)(C)C)[C@H](C)NC(=O)[C@H]([C@@H](C)O)NC(=O)[C@H](CC(=O)O)NC1=O [Compound 470] | 7.77 | –
CC(C)C[C@@H]1NC(=O)c2ccc(-c3ccc(N4CCN(C(=O)c5cc(-c6ccccc6)c(C(=O)N6CCN(c7ccc(-c8ccc9cc8CNC(=O)[C@@H]8CCCN8[C@H](C(=O)NC(C)(C)C)[C@H](C)NC(=O)[C@H]([C@@H](C)O)NC(=O)[C@H](CC(=O)O)NC(=O)[C@H](CC(C)C)NC9=O)cc7)CC6)cc5-c5ccccc5)CC4)cc3)c(c2)CNC(=O)[C@@H]2CCCN2[C@H](C(=O)NC(C)(C)C)[C@H](C)NC(=O)[C@H]([C@@H](C)O)NC(=O)[C@H](CC(=O)O)NC1=O [Compound 469] | 8.30 | –
